From patent publication US20250195537A1, “PSYCHEDELIC DRUG TREATMENT OF NEUROPSYCHIATRIC DISORDERS AND CEREBRAL PALSY” (priority 2021, published 2025)

Experiments:
[1] = Case reports: patients with depression given ketamine with or without an anxiolytic; assay type: in vivo, human
[2] = Case report: patient with muscle spasm associated with cerebral palsy given intramuscular ketamine; assay type: in vivo, human; conditions: intramuscular ketamine 0.2-1.2 mg/kg
[3] = Case report: patient with depression and suicidal ideation given ketamine with or without intranasal oxytocin; assay type: in vivo, human
[4] = cited from earlier work
[5] = ketamine infusions, benzodiazepine users, Albott et al., 2017

With `Cc1nnc2n1-c1ccc(Cl)cc1C(c1ccccc1)=NC2` [alprazolam] the improvement in depression ([1]; same patient, 0.5 mg alprazolam before the same dose of ketamine) was “significant improvement in depression”.

For `CNC1(c2ccccc2Cl)CCCCC1=O` (centres unmarked) [ketamine], the “muscle spasm after the treatment” value [2] is given as “reduction in their muscle spasm”, the “improvement in depression or suicidal ideation” value ([3]; ketamine alone, several times, intramuscular 0.25-1.0 mg/kg) is given as “did not experience improvement” and the “antidepressant effect of ketamine” value ([4]; concomitant use of benzodiazepines, Andrashko et al., 2020) is given as “dampened the antidepressant effect”. The “time to antidepressant response” value [4, 5] was “significantly longer”, the “time to depression relapse” value [4, 5] was “significantly shorter” and the “antidepressant response to ketamine infusions” value ([4]; one patient, after their benzodiazepine was withdrawn, Ford et al. (2015)) was “more robust”. For the same compound, the therapeutic benefit ([1]; patient with depression, ketamine alone) was “did not benefit therapeutically” and the antidepressant effect ([1]; same patient, ketamine without lorazepam, compared to times with lorazepam) was “reduced antidepressant effect”.

With `O=C1Nc2ccc(Cl)cc2C(c2ccccc2Cl)=NC1O` (centres unmarked) [lorazepam] the antidepressant effect ([1]; patient with depression, 1 mg lorazepam prior to ketamine, several treatments) was “experienced an antidepressant effect”.

With `CC[C@H](C)[C@@H]1NC(=O)[C@H](Cc2ccc(O)cc2)NC(=O)[C@@H](N)CSSC[C@@H](C(=O)N2CCC[C@H]2C(=O)N[C@@H](CC(C)C)C(=O)NCC(N)=O)NC(=O)[C@H](CC(N)=O)NC(=O)[C@H](CCC(N)=O)NC1=O` [oxytocin] the “severity of depression and suicidal ideation” value ([3]; same patient, oxytocin 40 IU intranasally 30 minutes before ketamine in same dose range) was “reduced severity of depression and suicidal ideation”.
